Test results published in patent US20250195496A1, “AVPR1A BLOCKADE TO REDUCE SOCIAL ISOLATION-INDUCED ANXIETY IN FEMALES” (THE TRUSTEES OF COLUMBIA UNIVERSITY IN THE CITY OF NEW YORK, priority 2022, published 2025).
“Also recorded” adds a separate entry of the source. Bridge positions count the residues as written; N and C are the ends. Ends that are not written are not given here.

What was measured:
AVPR1A^CeA neurons = assay: Chemogenetic activation of AVPR1A^CeA neurons by CNO (cFos smFISH); type: in vivo, mouse; settings: Avpr1a-Cre mice injected with the DREADD-Gq virus; single injection 1.5 mg/kg, i.p.
Text: (A) Heat map for the expression of the 300 top genes at […], 7, 13 and 22 weeks of age (n=3). […] (D) Vgat and AVPR1A expression detected with smFISH in a coronal section of the CeA at bregma-1.34 mm. (E) Quantification of AVPR1A^CeA neurons. (F) AVPR1A-Cre::tdTomato reporter expression in a coronal section of the CeA at bregma-1.34 mm. (G-L) Chemogenetic activation of AVPR1A^CeA neurons. (G) Schematic of bilateral injections of AAV-DIO-DREADD-Gq-mCherry (closed circles) vs. AAV-DIO-mCherry controls (open circles) in the CeA of Avpr1a-Cre adult mice. (H) Expression of the viral mCherry reporter in the CeA. High-magnification image showing Avpr1a and cFos expression detected with smFISH 1 h after CNO injections in mice injected with control (lower panel) and DREADD-Gq-mCherry (upper panel) AAVs. (I-L) Effects of CNO injections on marble burying (I), time spent in the open arms of the EPM (J), time spent in the center of the open field (K), and distance traveled in the open field (L) in mice injected with control and DREADD-Gq AAVs (n=6-9). Data are presented as means+/−SEM in E.
We utilized a chemogenetic approach to overcome this technical issue that prevented direct comparisons of males and females. […]

central AVPR1A circuits = assay: Food intake following amygdala injection of AVP; type: in vivo, mouse
WT and Avpr1a-/- females = assay: Marble burying after bilateral intra-CeA AVP injection; type: in vivo, mouse; settings: 1 ng AVP bilateral
Procedure: For cannulations, ophthalmic ointment and analgesics were administered (buprenorphine, 0.1 mg/kg or buprenorphine Ethiqa XR, 3.25 mg/kg, and carprofen, 5 mg/kg, subcutaneous). Two cannulas (Model C317GS, Plastics One) were placed by drilling holes at the following coordinates: +/−2.4 mm lateral, −1.4 mm anteroposterior and −4.6 mm ventral from Bregma. Implants were secured by dental cement and protected with a cap (Model C317DCS, Plastics One).
(§1) Marble burying: Standard cages were filled with fresh bedding to a depth of 2.5 in and 15 marbles were evenly spaced across the bedding. Animals were placed in the cage for 30 min and allowed to ambulate freely. At the end of the assay, the number of marbles buried was estimated visually. A marble was considered buried if at least ¾ of its surface was covered by the bedding.
Intra-amygdala AVP injections: Prior to marble burying, adult WT and Avpr1a^−/− females were bilaterally injected with 1 ng of AVP or 0.9% saline via in-dwelling cannulas using a Hamilton syringe (Hamilton 7635-01) connected to an injector (Model C317IS, Plastics One).

male rats = settings: males; AVP delivered into the CeA (Hernandez et al., 2016; Hernandez-Perez et al., 2018); cited from earlier work
WT mice = assay: Marble burying assay after i.p. antagonist injection; type: in vivo, mouse; settings: 2 mg/kg
Procedure: Chronic social Isolation: Mice were singly housed at 5 weeks of age for 7 weeks in standard cages. Control groups included mice isolated at 8 weeks of age for 2 weeks, or at 8 weeks of age for 7 weeks. An additional control group included mice socially isolated at 8 weeks of age for 7 weeks and regrouped at 15 weeks for 3 weeks.
All behavioral assays were performed after lights out (7 pm).
as §1, with “Animals were placed in the cage for 30 min and allowed to ambulate freely.” left out
Peripheral antagonist injections: Injections of SRX246 (AVPR1A antagonist, 2 mg/kg, i.p.), SR49059 (AVPR1A antagonist, 2 mg/kg, i.p.), SSR149415 (AVPR1B antagonist, 2 mg/kg, i.p.), d(CH2)5Tyr(Me)-[Orn8]-vasotocin (Oxytocin receptor antagonist, 2 mg/kg, i.p.), or 1% DMSO (Sigma Aldrich, i.p.) were performed in WT adults.

## C[N+]1([O-])CCN(C2=Nc3cc(Cl)ccc3Nc3ccccc32)CC1 [CNO, clozapine-N-oxide]
AVPR1A^CeA neurons
  activation of AVPR1A^CeA neurons: acutely activated AVPR1A^CeA neurons

## AVP: AVP (vasopressin), the AVPR1A ligand, injected into the amygdala/CeA (CYFQNCPRG-NH2; disulfide 1-6; UniProt P01185 20-28, looked up)
Central AVPR1A circuits; AVP 0.3 ng injected in the amygdala
  effect on food intake: anorexigenic effects
WT and Avpr1a-/- females; global knockout Avpr1a-/- females
  marble burying / anxiety behavior: had no effect
WT and Avpr1a-/- females; group housed WT females
  marble burying / anxiety behavior: trigger anxiety behavior in WT females; also recorded: increased marble burying
Male rats
  anxiety-related behaviors: can induce anxiety-like behaviors in males; also recorded: increase anxiety-related behaviors in males; also recorded: elicited anxiety-related behaviors

## COc1ccc(S(=O)(=O)N2C(=O)[C@@](c3ccccc3OC)(N3C[C@H](O)C[C@H]3C(=O)N(C)C)c3cc(Cl)ccc32)c(OC)c1 [AVPR1B antagonist]
WT mice; female mice exposed to CSIS
  marble burying (15 min): did not affect behavior in females or males
WT mice; male mice exposed to CSIS
  marble burying (15 min): did not affect behavior in females or males

## COc1ccc(S(=O)(=O)N2c3ccc(Cl)cc3[C@](O)(c3ccccc3Cl)[C@@H]2C(=O)N2CCC[C@H]2C(N)=O)cc1OC [SR49059]
WT mice; female WT mice exposed to >7 weeks CSIS starting at 5 or 8 weeks of age
  marble burying: had no effect
WT mice; male WT mice exposed to >7 weeks CSIS starting at 5 or 8 weeks of age
  marble burying: had no effect
Central AVPR1A circuits; AVP (0.3 ng) injected in the amygdala, peripheral injection of antagonist (Manning compound; SR49059 2 mg/kg)
  food intake: blockade of the anorexigenic effects of AVP: does not restore food intake

## d(CH2)5Tyr(Me)-[Orn8]-vasotocin [OXR antagonist]
WT mice; female mice exposed to CSIS
  marble burying (15 min): did not affect behavior in females or males
WT mice; male mice exposed to CSIS
  marble burying (15 min): did not affect behavior in females or males
